# Test results as given in patent US7169777B2, “Melanocortin receptor agonists” (Eli Lilly and Company, priority 2001, dated 2007).
# Counter-ions that a name gives are not always drawn. Like-named read-outs stand apart in the source and are kept apart here.
# Key:
# MC4 [1] = target: T1, MC4 (Homo sapiens, UniProt P32245); experiment: Radioligand binding assay (125I-NDP-alpha-MSH competition, SPA, membranes of transfected HEK 293 cells); parameters: expressed in transfected cells; host or cells: HEK 293 (stably transfected), membrane preparation
# Description: HEK 293 cells transfected with human or rat melanocortinin receptors are grown either as adherent monolayers or suspension culture. Monolayer cells are grown in roller bottle cultures at 37° C. and 5% CO2/air atmosphere in a 3:1 mixture of Dulbecco's modified Eagle medium (DMEM) and Ham's F12 containing 25 mM […], 100 units/ml penicillin G, 100 microgram/ml streptomyocin, 250 nanogram/ml amphoterin B, 300 microgram/ml genticin and supplemented with 5% fetal bovine serum. […] Cells are harvested by centrifugation, washed in PBS, and pellets are stored frozen at −80° C. until membrane preparations.
# The cell pellets are resuspended in 10 volumes of membrane preparation buffer (i.e., 1 g pellet to 10 ml buffer) having the following composition: 50 mM Tris pH 7.5 @ 4° C., 250 mM sucrose, 1 mM MgCl2, Complete® EDTA-free protease inhibitor tablet (Boehringer Mannheim), and 24 micrograms/ml DNase I (Sigma, St. Louis, Mo.). The cells are homogenized with a motor-driven dounce using 20 strokes, and the homogenate is centrifuged at 38,000×g at 4° C. for 40 minutes. The pellets are resuspended in membrane preparation buffer at a concentration of 2.5–7.5 mg/ml and 1 milliliter aliquots of membrane homogenates are quickly frozen in liquid nitrogen and then stored at −80° C.
# Solutions of a compound of formula I (300 picomolar to 30 micromolar) or unlabelled NDP-alpha-MSH (1 picomolar to 100 nanomolar) are added to 150 microliters of membrane binding buffer to yield final concentrations (listed in parantheses). The membrane binding buffer has the following composition: 25 mM HEPES pH 7.5; 10 mM CaCl2; 0.3% BSA). […] Additionally, fifty microliters of SPA beads (5 mg/ml) are added and the resulting mixture is agitated briefly and incubated for 10 hours at room temperature. The radioactivity is quantified in a Wallac Trilux Microplate Scintillation counter. IC50 values obtained in competition assays are converted to affinity constants (Ki values) using the Cheng-Prusoff equation: Ki=IC50/(1+D/Kd).
# MC4 [2] = target: T1, MC4; experiment: Melanocortin receptor whole cell cAMP accumulation assay (MC4R); type: cell-based; parameters: expressed in transfected cells; host or cells: HEK 293 (stably transfected); settings: for Relative Eff.: relative efficacy compared to NDP-alpha-MSH, defined as a 100% agonist
# Description: Melanocortin Receptor Whole Cell cAMP Accumulation Assay
# These are serially diluted in 100% DMSO. The compound plate is further diluted 1:200 in compound dilution buffer (HBSS-092, 1 mM Ascorbic Acid, 1 mM IBMX, 0.6% DMSO, 0.1% BSA). […] Transfer 20 μl from this plate into four PET 96-well plates (all assays are performed in duplicate for each receptor).
# […] cells stably transfected with the MC3R and MC4R were grown in DMEM containing 10% FBS and 1% Antibiotic/Antimycotic Solution. On the day of the assay the cells were dislodged with enzyme free cell dissociation solution and resuspended in cell buffer (HBSS-092, 0.1% BSA, 10 mM HEPES) at 1×e6 cells/ml. Add 40 μl of cells/well to the PET 96-well plates containing 20 ul diluted compound and control. Incubate @ 37° C. in a waterbath for 20 minutes. Stop the assay by adding 50 μl Quench Buffer (50 mM Na Acetate, 0.25% Triton X-100).
# Radioligand binding assays were run in SPA buffer (50 mM Sodium Acetate, 0.1% BSA). The beads, antibody and radioligand were diluted in SPA buffer to provide sufficient volume for each 96-well plate. […] The plates were counted in a Wallac MicroBeta counter after a 12-hour incubation.
# The data was converted to pmoles cAMP using a standard curve assayed under the same conditions. The data was analyzed using Activity Base software to generate agonist potencies (EC50) and percent relative efficacy data to NDP-aMSH.
# rodents = settings: injected intracerebroventricularly (ICV); NPY, ob/ob, agouti, fasted models; cited from earlier work
# [3] = 125I-NDP-alpha-MSH competition, Ki from IC50 by Cheng-Prusoff, read-out: MC4 Binding Ki
# [4] = MC4 agonist potency, read-out: MC4 EC50
# T1 sequence (P32245 whole entry): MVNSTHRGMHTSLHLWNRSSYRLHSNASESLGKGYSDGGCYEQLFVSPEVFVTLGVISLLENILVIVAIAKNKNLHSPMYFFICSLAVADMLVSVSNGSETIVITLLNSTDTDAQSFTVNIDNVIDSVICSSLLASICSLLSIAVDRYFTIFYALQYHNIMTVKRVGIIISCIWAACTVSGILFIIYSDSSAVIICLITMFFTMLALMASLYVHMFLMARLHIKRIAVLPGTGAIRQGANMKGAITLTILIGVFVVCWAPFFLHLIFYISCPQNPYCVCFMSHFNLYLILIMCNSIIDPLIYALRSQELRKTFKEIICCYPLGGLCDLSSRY
Compound,Ki (MC4 [1]) [µM],EC50 (MC4 [2]) [µM],Relative Eff. (MC4 [2]),Ki (MC4 [1]; [3]) [µM],EC50 (MC4 [2]; [4]) [µM],food intake (rodents)
CCN(CC)CC(c1ccccc1F)N1CCN(C(=O)[C@@H](Cc2ccc(Cl)cc2)NC(=O)[C@H]2Cc3ccccc3C(C)(C)N2)CC1 (some centres unmarked) [Compd 814],,,108.6,0.0181,0.127,
CC(C)CC(CC(C)C)N1CCN(C(=O)[C@@H](Cc2ccc(Cl)cc2)NC(=O)CC2NCc3ccccc32)CC1.Cl.Cl (some centres unmarked) [Compd 3251],,,67.0,0.0058,0.0767,
SHU-9119,,,,,,reverses this effect and can induce hyperphagia
melanotanin-II [MT-II],,,,,,reduces food intake

# Second part, led by results:
Ki (MC4 [1]) [µM],EC50 (MC4 [2]) [µM],Relative Eff. (MC4 [2]),Ki (MC4 [1]; [3]) [µM],EC50 (MC4 [2]; [4]) [µM],Compound,food intake (rodents)
0.01,0.0693,115.6,,,"O=C(CC1NCc2ccccc21)N[C@H](Cc1ccc(Cl)cc1)C(=O)N1CCN(C(CC2CCCCC2)CN2CCOCC2)CC1 (mixture of isomers) [Example N38, N-{1-(4-chloro-benzyl)-2-[4-(1-cyclohexylmethyl-2-morpholine-4-yl-ethyl)-piperazin-1-yl]-2-oxo-ethyl}-2-(2,3-dihydro-1H-isoindol-1-yl)-acetamide tri(trifluoroacetate) salt]",
,,102.6,0.0113,0.0084,"CC(C)CN(CC(C1CCCCC1)N1CCN(C(=O)C(Cc2ccc(Cl)cc2)NC(=O)CC2NCc3ccccc32)CC1)S(C)(=O)=O (single isomer, unassigned) [Example N71, N-(1-(4-Chloro-benzyl)-2-{4-[1-cyclohexyl-2-(isobutyl-methanesulfonyl-amino)-ethyl]-piperazin-1-yl}-2-oxo-ethyl)-2-(2,3-dihydro-1H-isoindol-1-yl)-acetamide dihydrochloride salt]",
